Turning to `Cc1c(C#N)ncn1-c1cccc(O)c1`, the melting point was in the range of 205 to 207 °C.

As for `CN(O)C(=O)Nc1ccc(Cl)c(C(F)(F)F)c1`, the melting point lay in the range of 114 to 115 °C. `CCOC(=O)c1cnc2snc(C)c2c1NCS(=O)(=O)c1ccc(Oc2ccc(Cl)cc2)cc1` gave a melting point of 117 to 120 °C. With `COc1cc2c(Nc3ccc(Cl)cc3F)ncnc2cc1OCCN(C)C(=O)OC(C)(C)C` the figure was 194 to 196 °C. In the case of `NCc1ccc(CC(N)=O)cc1` it was 138 to 140 °C. With `CCOC(=O)c1ccc2ccccn2c1=O` the figure was 105 to 109 °C; with `O=C(O)C1=Cc2cc(Cl)c(Oc3ccc([N+](=O)[O-])cc3)cc2OC1C(F)(F)F` (stereo not given), 246 to 248 °C. As for `CS(=O)c1ccc(CSc2nnc(-c3ccc4[nH]ncc4c3)o2)cc1C(F)(F)F` (stereo not given), the melting point is 170 to 171 °C. With `CC(=O)OCCOCn1c(Cl)nc2c(Cl)c(Cl)c(Cl)c(Cl)c21` the figure was 119 °C. In the case of `CC1Nc2ccc(-c3coc(C#N)c3)cc2C(C)(C)O1` (stereo not given) it was 116 to 118 °C.

For `Brc1cnc(N2CCCC2)c(OCC2CCCC2)n1`, the melting point lay within 54 to 55 °C.

As to `Cn1c2cc(Cl)ccc2c2c(C(=O)O)nc(-c3ccccc3)nc21`, the melting point was in the range of 208 to 209 °C. With `COC(=O)c1ccc(S(=O)(=O)C[N+](=O)[O-])cc1` the figure was 106 to 108 °C. With `COc1cc(C2CCCCC2)ccc1C(=O)CCC(=O)O` the figure was 130 to 131 °C. In the case of `C=CCNC(=O)C1CCc2ccccc2O1` (stereo not given) it was 76 to 77 °C.

The molecule `CS(=O)(=O)OCCCc1ccc(SCc2coc(/C=C/c3ccccc3)n2)cc1` came in with a melting point of 97 to 98 °C.

For `CSc1nc2ccc3c(c2o1)C(CCNC(C)=O)CC3` (stereo not given), the melting point was 115 to 117 °C. With `COc1cc(C(O)CN2CCC(C(c3ccccc3)c3ccccc3)CC2)on1` (stereo not given) the figure was 121 to 126 °C; with `Cc1oc(-c2ccccc2)nc1COc1ccc(COc2nn(Cc3ccccc3)cc2CC(=O)O)cc1`, 91 to 92 °C; with `COc1ccc(C(=O)Nc2ccccc2)cc1NCc1cccc(F)c1`, 137 to 140 °C.

In turn, `CS(=O)(=O)c1c(F)nc(F)nc1F` returned a melting point of 103 to 105 °C.

With `CN(C)CCOc1ccc2ccc(NC(=O)c3ccccc3)nc2n1`, the melting point was 109 °C. With `CCCSc1ncc(C(=O)N[C@@H](Cc2ccc(O)cc2)C(=O)OC)n1Cc1ccccc1Cl` the figure was 180 to 182 °C; with `CC[C@H](C)OC(=O)COc1ccc(C(=O)[C@H](COC(C)(C)C)NC(=O)c2ccc(C(=N)NC(=O)OC(C)(C)C)cc2)cc1`, 85 to 87 °C; with `ON=Cc1c(-c2ccccc2Cl)ccc2c1OCO2`, 182 to 183 °C.

Consider `CCOC(=O)c1cccc(-c2c(OC)cccc2C(=O)O)c1`, for which the melting point lay in the range of 128 to 129 °C.

Consider `COC(C)c1cc2c(=O)n(NS(C)(=O)=O)c(=O)[nH]c2cc1C(F)(F)F` (stereo not given), for which the melting point lay within 233 to 236 °C.

With `CC1(C)CC(C2CCC(O)CC2)CC(C)(C)N1` (stereo not given), the melting point lay within 145 to 150 °C. In the case of `COc1ccc(NC(=O)c2ccccc2F)cc1` it was 83.1 to 84.3 °C; in that of `Cc1ccc(N=C(NC#N)NCc2ccc3c(c2)CN(C2CCC(=O)NC2=O)C3=O)cc1Cl` (stereo not given), 325 to 327 °C; in that of `CC(C)(C)c1ccc(NC(=O)c2cccc(C(OC(=O)Nc3ccc4[nH]ncc4c3)[C@@H]3CCCCN3)c2)cc1` (stereo not given in full), 214 °C.

In turn, `Cc1ccn(-c2ccc(C(=O)N3Cc4cccnc4Oc4ccccc43)c(Cl)c2)n1` registered a melting point of 220 to 222 °C.

With `CN1CCCC1CCOc1ccc(-c2nnc(CSCCOc3ccccc3)o2)cc1` (stereo not given), the melting point was in the range of 46 to 50 °C. In the case of `COc1ccc(S(=O)(=O)N2c3ccccc3-c3ccccc3C2C(C)(C)C)cc1` (stereo not given) it was 156 to 158 °C. With `O=C1COCCN1CCn1c2ccccc2c2c(N3CCCC3)nc(N3CCCC3)nc21` the figure was 179 to 180 °C.

A word on the melting point: it is the temperature of the solid-liquid transition.

Source of the values: a melting point compilation (Tetko et al.; mined from patent text by program, amines drawn as free bases though some values may be those of a salt).
